In patent EP1420018A1, “Pyrido[1,2-a]benzimidazole derivatives useful in treating central nervous system disorders” (Ortho-McNeil Pharmaceutical, Inc., priority 1996, dated 1998):
Read-outs that look alike come from different tables or passages of the source.

Columns and labels:
[1] = test system: Anxiety in the Adult Male Rat; test: Suppression of Anxiety in the Adult Male Rat (rat conflict test); format: in vivo, rats; settings: rat; for minimal effective dose: Rattus norvegicus
Summary of the method: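 Male rats, 48 h water- and 24 h food-deprived, trained with 200 unpunished licks, tested at expected peak drug activity. Every 20th lick punished by 0.2-s shock over a 3-min session; increase in median shocks versus concurrent vehicle assessed by one-tailed Mann-Whitney test (p<0.05), validated with a positive-control anxiolytic.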

[2] = target: benzodiazepine site of the GABA-A receptor; test: Benzodiazepine Receptor Binding Assay (inhibition of 3H-flunitrazepam binding); settings: read-out: GABAA Receptor Binding IC50
[3] = test system: metrazol-induced convulsions; test: Suppression of Metrazol-Induced Convulsions in Adult Male Mice; format: in vivo; settings: Mus musculus, ip, mouse
Description: Assay to Determine the Suppression of Metrazol-Induced Convulsions in Adult Male Mice
Male CD1 mice, were fasted at least 16 hours, were divided into equal groups and test compounds or vehicle were administered parenterally. Water was not withheld except during the period of observations. […] Metrazol was dissolved in 0.9% sodium chloride solution, and its dose volume was 10 ml/kg. Animals were housed individually for observation of clonic convulsions, tonic convulsions and death for a period of 30 min. […] The biological assay was considered to be valid if the effects of a known anticonvulsant (positive control) were detected, within the same experiment. Activity was reported as percent reduction of clonic convulsions from the vehicle group.

[4] = test system: metrazol-induced convulsions; test: as above; format: in vivo; settings: mouse; for ED50: Mus musculus, po
[5] = po, po, read-out: Rat Conflict (MED, mg/kg) po
[6] = ip, ip, read-out: Rat Conflict (MED, mg/kg) ip

IC50 [2] | Compound | minimal effective dose [1, 5] | ED50 [3] | ED50 [4] | minimal effective dose [1, 6] | Rat Conflict (MED, mg/kg) po ([1]; po) | Mouse Metrazol (ED50, mg/kg) po [4]
4.47 nM | COCCN1C2=C(C(=O)Nc3ccc(OC)cc3)C(=O)CCN2c2ccc(F)cc21 [Compound 106] | 1 mg/kg | < 1 mg/kg | 0.3 mg/kg |  |  | 
10.4 nM | COCCN1C2=C(C(=O)Nc3ccccc3F)C(=O)CCN2c2c(O)cccc21 [Compound 108] | > 10 mg/kg | > 1 mg/kg | ≥ 30 mg/kg |  |  | 
19.1 nM | COCCN1C2=C(C(=O)NC3CCCCC3)C(=O)CCN2c2ccc(F)cc21 [Compound 110] | 10 mg/kg | ≥ 1 mg/kg | ≥ 30 mg/kg |  |  | 
1.9 nM | CCOCN1C2=C(C(=O)NC3CC3)C(=O)CCN2c2ccc(F)cc21 [Compound 111] | > 10 mg/kg | > 1 mg/kg | > 30 mg/kg |  |  | 
0.3 nM | COC(=O)OCCN1C2=C(C(=O)Nc3ccccc3F)C(=O)CCN2c2ccc(F)cc21 [Compound 114, 7-Fluoro-1,2-dihydro-5-[2-(methoxycarbonyloxy)ethyl]-3-oxo-N-(2-fluorophenyl)pyrido[1,2-a]benzimidazole-4-carboxamide] | 3 mg/kg | < 1 mg/kg | ≤ 3 mg/kg |  |  | 
100 nM | CCOCN1C2=C(C(=O)Nc3cc4ccccc4s3)C(=O)CCN2c2ccccc21 [Compound 116] | > 10 mg/kg | > 1 mg/kg | > 30 mg/kg |  |  | 
3.68 nM | COCCN1C2=C(C(=O)NC3CC3)C(=O)CCN2c2ccc(F)cc21 [Compound 118] | 10 mg/kg | < 1 mg/kg | ~3 mg/kg |  |  | 
35.1 nM | CCOCN1C2=C(C(=O)Nc3ccc(S(C)(=O)=O)s3)C(=O)CCN2c2ccc(F)cc21 [Compound 120] | > 10 mg/kg | > 1 mg/kg | ~3 mg/kg |  |  | 
84 nM | CCOCCN1C2=C(C(=O)Nc3ccc(S(C)(=O)=O)s3)C(=O)CCN2c2ccc(F)cc21 [Compound 121] | > 10 mg/kg | > 1 mg/kg | > 30 mg/kg |  |  | 
1.19 nM | CCOCN1C2=C(C(=O)Nc3ccc(F)cc3F)C(=O)CCN2c2ccc(F)cc21 [Compound 123] | 0.1 mg/kg | < 1 mg/kg | < 3 mg/kg | ≤ 0.1 mg/kg |  | 
0.98 nM | CCOCN1C2=C(C(=O)Nc3ccsc3)C(=O)CCN2c2ccc(F)cc21 [Compound 124] | ~0.3 mg/kg | < 1 mg/kg | ~0.2 mg/kg |  |  | 
0.89 nM | CCOCCN1C2=C(C(=O)Nc3sccc3Cl)C(=O)CCN2c2ccc(F)cc21 [Compound 125] | > 10 mg/kg | < 1 mg/kg | > 30 mg/kg |  |  | 
0.73 nM | CCOCCN1C2=C(C(=O)Nc3cccs3)C(=O)CCN2c2ccc(F)cc21 [Compound 126] | 0.1 mg/kg | < 1 mg/kg | ~0.6 mg/kg |  |  | 
585 nM | CCOCN1C2=C(C(=O)Nc3c(F)cccc3F)C(=O)CCN2c2c1ccc(F)c2F [Compound 127] | > 10 mg/kg | ~1 mg/kg | > 30 mg/kg |  |  | 
1.05 nM | CCOCN1C2=C(C(=O)Nc3cccs3)C(=O)CCN2c2ccc(F)cc21 [Compound 129] | 3 mg/kg | < 1 mg/kg | ~0.2 mg/kg |  |  | 
2.27 nM | CCOCCN1C2=C(C(=O)Nc3ccnc(F)c3)C(=O)CCN2c2ccc(F)cc21 [Compound 130] | 1 mg/kg | < 1 mg/kg | ~0.8 mg/kg |  |  | 
1.03 nM | CCOCCN1C2=C(C(=O)Nc3ccc(C)s3)C(=O)CCN2c2ccc(F)cc21 [Compound 131] | ~1 mg/kg | < 1 mg/kg | ~0.6 mg/kg |  |  | 
1.81 nM | CCOCN1C2=C(C(=O)Nc3ccc(Cl)s3)C(=O)CCN2c2ccc(F)cc21 [Compound 134] | > 10 mg/kg | < 1 mg/kg | 2 mg/kg |  |  | 

IC50 [2] | Compound | minimal effective dose [1, 5] | ED50 [3] | ED50 [4] | minimal effective dose [1, 6] | Rat Conflict (MED, mg/kg) po ([1]; po) | Mouse Metrazol (ED50, mg/kg) po [4]
5.55 nM | COCCN1C2=C(C(=O)Nc3ccc(F)cc3F)C(=O)CCN2c2ccc(F)cc21 [Compound 136] | 0.3 mg/kg | < 1 mg/kg | 0.3 mg/kg |  |  | 
2.4 nM | CCOCCN1C2=C(C(=O)Nc3ccc(F)cc3F)C(=O)CCN2c2ccc(F)cc21 [Compound 137] | 1 mg/kg | < 1 mg/kg | 0.15 mg/kg | 1 mg/kg |  | 
1.34 nM | COCCN1C2=C(C(=O)Nc3sccc3Cl)C(=O)CCN2c2ccc(F)cc21 [Compound 138] | > 10 mg/kg | < 1 mg/kg | 30 mg/kg |  |  | 
1.79 nM | COCCN1C2=C(C(=O)Nc3cccs3)C(=O)CCN2c2ccc(F)cc21 [Compound 139] | ~1 mg/kg | < 1 mg/kg | ~0.2 mg/kg |  |  | 
3.97 nM | COCCN1C2=C(C(=O)Nc3nccs3)C(=O)CCN2c2ccc(F)cc21 [Compound 140] |  | < 1 mg/kg |  |  | >10 mg/kg | 0.3 mg/kg
6.78 nM | CCOCCN1C2=C(C(=O)Nc3nccs3)C(=O)CCN2c2ccc(F)cc21 [Compound 141] | > 3 mg/kg | < 1 mg/kg | ~6 mg/kg |  |  | 
3.17 nM | COCCN1C2=C(C(=O)Nc3ccc(C)s3)C(=O)CCN2c2ccccc21 [Compound 142] | ~1 mg/kg | < 1 mg/kg | 0.7 mg/kg |  |  | 
1.35 nM | COCCN1C2=C(C(=O)Nc3ccc(C)s3)C(=O)CCN2c2ccc(F)cc21 [Compound 143] | < 10 mg/kg | < 1 mg/kg | 0.7 mg/kg |  |  | 
5.26 nM | COCCN1C2=C(C(=O)Nc3ccc(Br)s3)C(=O)CCN2c2ccc(F)cc21 [Compound 144] | > 10 mg/kg | < 1 mg/kg | ~10 mg/kg |  |  | 
2.05 nM | COCCN1C2=C(C(=O)Nc3ccc(Cl)s3)C(=O)CCN2c2ccc(F)cc21 [Compound 145] | > 10 mg/kg | < 1 mg/kg | ~30 mg/kg |  |  | 
2.09 nM | COCCN1C2=C(C(=O)Nc3ccc(Cl)s3)C(=O)CCN2c2ccccc21 [Compound 146] | > 10 mg/kg | < 1 mg/kg | > 30 mg/kg |  |  | 
2.49 nM | COCCN1C2=C(C(=O)Nc3ccccc3F)C(=O)CCN2c2ccc(Cl)cc21 [Compound 147] | > 10 mg/kg | < 1 mg/kg | ~5 mg/kg |  |  | 
1.98 nM | COCCN1C2=C(C(=O)Nc3ccccc3F)C(=O)CCN2c2ccc(C(F)(F)F)cc21 [Compound 148] | > 10 mg/kg | < 1 mg/kg | ~10 mg/kg |  |  | 
1.08 nM | COCCN1C2=C(C(=O)Nc3ccccc3F)C(=O)CCN2c2ccc(F)c(F)c21 [Compound 149] | > 10 mg/kg | < 1 mg/kg | 3 mg/kg |  |  | 
0.32 nM | CC(C)OCCN1C2=C(C(=O)Nc3ccccc3F)C(=O)CCN2c2ccc(F)cc21 [Compound 150] | 10 mg/kg | < 1 mg/kg | 1 mg/kg |  |  | 
4.64 nM | COCCN1C2=C(C(=O)Nc3c(F)cccc3F)C(=O)CCN2c2ccccc21 [Compound 151] | 10 mg/kg | < 1 mg/kg | ~2 mg/kg |  |  | 
0.28 nM | CCOCCCN1C2=C(C(=O)Nc3ccccc3F)C(=O)CCN2c2ccc(F)cc21 [Compound 152] | 1 mg/kg | < 1 mg/kg | ~0.3 mg/kg |  |  | 
